Experimental data as given in patent publication US9440983B2, “Pyrrolo[3,2-d]pyrimidine-2,4(3H,5H)-dione derivatives” (Hydra Biosciences, Inc., priority 2014, dated 2016).

Experiments:
TRPC5 channel [1] = biological target: T1, TRPC5 channel (Homo sapiens, UniProt Q9UL62); assay: High throughput screening assay: Fluo4 cell-based fluorescence detection of intracellular Ca2+ rise; details: HEK293/TREx cells inducibly expressing TRPC5, high-Ca2+ Ringer (14 mM Ca2+), 7 concentrations in triplicate
T1 construct: expressed in transfected cells; host or cells: HEK293/TREx (Invitrogen), stably transfected, tetracycline-induced
T1 sequence (Q9UL62 1-973): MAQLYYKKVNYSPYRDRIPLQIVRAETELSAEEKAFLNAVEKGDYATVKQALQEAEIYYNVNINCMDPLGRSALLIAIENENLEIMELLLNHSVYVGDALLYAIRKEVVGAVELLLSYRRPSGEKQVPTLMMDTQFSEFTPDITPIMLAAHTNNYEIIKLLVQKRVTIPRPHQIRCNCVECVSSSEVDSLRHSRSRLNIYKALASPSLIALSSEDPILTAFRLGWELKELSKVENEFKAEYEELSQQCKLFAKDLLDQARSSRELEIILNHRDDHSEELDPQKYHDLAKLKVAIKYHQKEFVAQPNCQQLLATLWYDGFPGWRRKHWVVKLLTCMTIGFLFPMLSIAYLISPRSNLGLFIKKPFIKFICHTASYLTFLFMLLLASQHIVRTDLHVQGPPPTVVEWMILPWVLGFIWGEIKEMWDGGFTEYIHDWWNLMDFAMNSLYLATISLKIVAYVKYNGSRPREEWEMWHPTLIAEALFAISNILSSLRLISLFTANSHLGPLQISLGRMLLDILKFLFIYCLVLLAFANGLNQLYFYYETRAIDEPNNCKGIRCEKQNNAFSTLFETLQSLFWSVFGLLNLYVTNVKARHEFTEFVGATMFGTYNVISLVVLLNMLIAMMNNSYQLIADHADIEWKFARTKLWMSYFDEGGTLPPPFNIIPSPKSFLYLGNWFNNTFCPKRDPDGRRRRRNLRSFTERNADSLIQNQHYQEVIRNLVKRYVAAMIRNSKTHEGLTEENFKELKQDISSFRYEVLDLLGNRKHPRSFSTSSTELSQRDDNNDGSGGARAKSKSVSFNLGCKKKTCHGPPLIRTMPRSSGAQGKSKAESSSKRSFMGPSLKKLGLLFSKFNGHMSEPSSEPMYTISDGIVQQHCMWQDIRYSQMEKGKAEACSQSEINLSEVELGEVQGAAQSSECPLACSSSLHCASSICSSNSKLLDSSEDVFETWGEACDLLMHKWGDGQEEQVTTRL
Source text: The assay depended on detection of the rise in intracellular Ca2+ concentration ([Ca2+]i) following channel activation in cells inducibly expressing the TRPC5 channel. Ca2+ rise was quantified with the use of fluorescent Ca2+ indicators that were loaded into cells and thereafter indicated the [Ca2+]i Ca2+ influx followed activation of the TRPC5 channel. Compounds inhibiting the [Ca2+]i rise were considered hits for further investigation.
The commercially available HEK293/TREx line (Invitrogen) was stably transfected with a TRPC5 construct and screened by conventional calcium imaging to find clones with TRPC5 expression following stimulation with 1 μg/ml tetracycline. These cells were maintained in the growth medium recommended by the manufacturer supplemented with 100 μg/ml hygromycin to promote retention of the TRPC5 construct. After growing to near confluency, cells were plated at a density of ˜35,000 cells/well in 384 well CellBind plates (Corning) in the presence of 1 μg/ml tetracycline, and allowed to grow for 20-30 hrs. A nearly confluent monolayer resulted. Cells were then loaded with Ca2+ dye: Fura-2/AM or Fluo4/AM was added to the wells to a final concentration of 4 μM or 0.5 μM, respectively, and incubated for 80 min or 60 min, respectively, at room temperature. Supernatant was then removed from the cells by inverting plates with a sharp flick, and 25 μl Hank's Balanced Salt Solution (HBSS; 0.185 g/l D-glucose, 0.9767 g/l MgS04 (anhydrous), 0.4 g/l KCl, 0.06 g/l KH2PO4 (anhydrous), 0.35 g/l NaHCO3, 8.0 g/l NaCl, and 0.04788 g/l Na2HPO4 (anhydrous); pH 7.4) was then added to each well. Following ˜0.5 hour for recovery from loading, cells were assayed using the Hamamatsu FDSS 6000 system, which permitted illumination alternately at 340 nm and 380 nm for Fura-2 experiments, or at 485 nm for Fluo4 experiments. Frames were acquired at a rate of 0.2 Hz. During the assay, the plates were continuously vortexed, with pipette mixing of wells following addition of each reagent. For the screening assay, 26 μl of a diluted compound stock (at 50 μM) was added to each well for 2 minutes following the collection of a short (4 frame) baseline. 13 μl 62 mM high-Ca2+ Ringer solution (4.17 ml of normal ringer (with 2 mM Ca2+) plus 5.83 ml of isotonic calcium ringer (105 mM Ca2+; in this ringer all sodium has been replaced with calcium)) was then added to each well, achieving a final concentration of 14 mM Ca2+ and 10 μM test compound. Data was collected for ˜3 minutes following addition of high Ca2+Ringer, where the fluorescent intensity (for Fluo4) and the F340/F380 ratio (for Fura-2) were proportional to the [Ca2+]i Negative controls consisted of HEK293/TREx TRPC5 cells exposed to high Ca2+ solution, but no compound. Positive control conditions consisted of addition of 2-APB, a promiscuous blocker of TRPC5 and other channels, to columns 23 and 24 of the plates, to a final concentration of 200 μM. These controls defined a screening window, and “hits” were defined as those compounds inhibiting the fluorescence response by at least 40%. IC50 values were determined for compounds defined as “hits.” The Fluo4 cell-based fluorescence assay was used to determine the intracellular Ca2+ concentration in the presence of varying drug concentration. Final concentrations of compounds tested were 20 μM, 6.667 μM, 2.222 μM, 0.741 μM, 0.247 μM, 0.082 μM, and 0.027 μM. Compounds were tested in triplicate at all concentrations. Standard software was used to fit IC50 curves.
Additionally or alternatively, efficacy can be represented as % inhibition in the presence (of a given concentration of compound) versus the absence of compound or in comparison to a control compound. For example, efficacy can be represented as % inhibition of ion flux in the presence versus the absence of compound.

TRPC5 channel [2] = biological target: T1, TRPC5 channel; assay: Whole-cell patch clamp experiments, TRPC5 current; format: cell-based; details: whole-cell patch clamp in TRPC5-expressing HEK293 TREx cells; current activated by LaCl3; IC50 estimated
Source text: Patch clamp experiments permit the detection of currents through the TRPC5 channel in the cell line described above. In normal whole-cell patch clamp recordings, a glass electrode is brought into contact with a single cell and a high-resistance (gigaohm) seal is established with the cell membrane. The membrane is then ruptured to achieve the whole-cell configuration, permitting control of the voltage of the cell membrane and measurement of currents flowing across the membrane using the amplifier attached to the electrode and resulting in the replacement of cytoplasm with the pipette solution. A perfusion system permits control of the extracellular solution, including the addition of blockers and activators of the current. The current can be activated by including 1.4 μM free Ca^2+ in the pipette (intracellular) solution, and 80 μM LaCl3 in the extracellular solution. TRPC5 cells were induced 20-48 hours, removed from growth plates, and replated at low density (to attain good single-cell physical separation) on glass coverslips for measurement. In some cases, cells were grown in low density overnight on glass coverslips. […] Currents elicited were quantified at −80 mV and +80 mV. The internal solution consisted of 140 mM cesium aspartate, 10 mM HEDTA, 2 mM CaCl2, 2.27 mM MgCl2 and 10 mM HEPES, pH 7.2, with 1,400 nM calculated free Ca^2+. […]

Row | IC50 (TRPC5 channel [1]) | IC50 (TRPC5 channel [2]) | Structure (SMILES)
1 | 421 nM |  | Cc1c(-c2cccc(OC(F)(F)F)c2)n(Cc2ccc(Cl)cc2)c2c(=O)n(CCCO)c(=O)n(C)c12 [Compound 29, 5-(4-chlorobenzyl)-3-(3-hydroxypropyl)-1,7-dimethyl-6-(3-(trifluoromethoxy)phenyl)-1H-pyrrolo[3,2-d]pyrimidine-2,4(3H,5H)-dione]
2 | 503 nM | 1.14 nM | Cn1c(=O)n(CCCO)c(=O)c2c1cc(-c1cccc(Cl)c1)n2Cc1ccc(Cl)cc1 [Compound 30, 5-(4-chlorobenzyl)-6-(3-chlorophenyl)-3-(3-hydroxypropyl)-1-methyl-1H-pyrrolo[3,2-d]pyrimidine-2,4(3H,5H)-dione]
3 | 2940 nM |  | Cn1c(-c2cccc(OC(F)(F)F)c2)cc2c1c(=O)n(CCCO)c(=O)n2C [Compound 32, 3-(3-hydroxypropyl)-1,5-dimethyl-6-(3-(trifluoromethoxy)phenyl)-1H-pyrrolo[3,2-d]pyrimidine-2,4(3H,5H)-dione]
4 | 832 nM |  | Cc1c(-c2cccc(OC(F)(F)F)c2)n(C)c2c(=O)n(CCCO)c(=O)n(C)c12 [Compound 33, 3-(3-hydroxypropyl)-1,5,7-trimethyl-6-(3-(trifluoromethoxy)phenyl)-1H-pyrrolo[3,2-d]pyrimidine-2,4(3H,5H)-dione]
5 | 3080 nM |  | Cc1cn(Cc2ccc(Cl)cc2)c2c(=O)n(CCCO)c(=O)n(C)c12 [Compound 34, 5-(4-chlorobenzyl)-3-(3-hydroxypropyl)-1,7-dimethyl-1H-pyrrolo[3,2-d]pyrimidine-2,4(3H,5H)-dione]
6 | 780 nM |  | Cn1c(=O)n(CCCO)c(=O)c2c1cc(-c1cccc(OC(F)(F)F)c1)n2Cc1ccc(Cl)cc1 [Compound 35, 5-(4-chlorobenzyl)-3-(3-hydroxypropyl)-1-methyl-6-(3-(trifluoromethoxy)phenyl)-1H-pyrrolo[3,2-d]pyrimidine-2,4(3H,5H)-dione]
7 | 7540 nM |  | Cc1c(-c2cccc(OC(F)(F)F)c2)[nH]c2c(=O)n(CCCO)c(=O)n(C)c12 [Compound 36, 3-(3-hydroxypropyl)-1,7-dimethyl-6-(3-(trifluoromethoxy)phenyl)-1H-pyrrolo[3,2-d]pyrimidine-2,4(3H,5H)-dione]
8 | 408 nM | < 1 nM | Cn1c(=O)n(CCCO)c(=O)c2c1c(-c1cccc(Cl)c1)cn2Cc1ccc(Cl)cc1 [Compound 37, 5-(4-chlorobenzyl)-7-(3-chlorophenyl)-3-(3-hydroxypropyl)-1-methyl-1H-pyrrolo[3,2-d]pyrimidine-2,4(3H,5H)-dione]
